The record followed here is ChEMBL document CHEMBL5335841, “In vitro biological evaluation and in silico studies of linear diarylheptanoids from Curcuma aromatica Salisb. as urease inhibitors” (RSC Med Chem, 2024).

Molecules are shown by their SMILES.

A short description of assay [1]: Inhibition of urease (unknown origin) using urea as substrate preincubated for 30 mins followed by substrate addition and measured after 20 mins by red phenol reagent based assay.
Assay [2] is described as follows: Inhibition of urease (unknown origin) at 250 uM using urea as substrate preincubated for 30 mins followed by substrate addition and measured after 20 mins by red phenol reagent based assay relative to control. To be noted: time 50.0 min.

For `COc1cc(CC[C@H](O)C[C@H](O)CCc2cc(OC)c(O)c(OC)c2)ccc1O` (relative stereo), the IC50 in assay [1] was > 250 µM. This molecule showed an inhibition in assay [2] of 27.3%.

`COc1cc(CC[C@H](C[C@H](CCc2ccc(O)cc2)OC(C)=O)OC(C)=O)ccc1O` (relative stereo) gave an IC50 in assay [1] of 223 µM.

`NC(=O)NO` [HYDROXYUREA] returned an IC50 in assay [1] of 77.5 µM.

Molecule `COc1cc(CC[C@@H](O)C[C@@H](O)CCc2ccc(O)cc2)cc(OC)c1O` (relative stereo) gave an IC50 in assay [1] of 228 µM. This IC50 lies about 2.9-fold higher than the previous one.

In assay [1], `COc1cc(CC[C@@H](O)C[C@H](O)CCc2ccc(O)c(O)c2)ccc1O` (relative stereo) displayed an IC50 of 21.8 µM.

The molecule `COc1cc(CC[C@@H](O)C[C@@H](O)CCc2ccc(O)cc2)ccc1O` (relative stereo) had an IC50 in assay [1] of 153 µM.

Consider `CC(=O)O[C@H](CCc1ccc(O)c(O)c1)C[C@H](CCc1ccc(O)cc1)OC(C)=O` (relative stereo), for which, in assay [1], the IC50 stood at 129 µM. This IC50 and that of the molecule before are within 1.5-fold of each other.

Take `COc1cc(CC[C@H](C[C@H](CCc2ccc(O)cc2)OC(C)=O)OC(C)=O)cc(OC)c1O` (relative stereo): in assay [1], the IC50 is > 250 µM. In assay [2], this molecule registered an inhibition of 3.3%.

With `COc1cc(CC[C@@H](O)C[C@H](O)CCc2cc(OC)c(O)c(OC)c2)ccc1O` (relative stereo), the IC50 in assay [1] was > 250 µM. Also, in assay [2], the inhibition stood at 14.3%.

Take `Oc1ccc(CC[C@H](O)C[C@H](O)CCc2ccc(O)c(O)c2)cc1` (relative stereo): the IC50 in assay [1] worked out at 9.6 µM. This counts as single-digit micromolar.
